Values quoted from earlier work in patent publication US9155702B2, “Composition and microsphere for controlled-release of exendin, and method preparing the same” (PEPTRON CO., LTD, priority 2007, dated 2015).

Tested on: diabetic ob/ob mice
Details: intraperitoneal injections once per day

Q: For exendin-4, which “effect of lowering the blood-sugar level” value is on record?
A: The value was “prolonged effect of lowering the blood-sugar level”.
